Data set [1] in a line: Microsomal stability assay, mouse liver microsomes. In kind it is in vitro ADME. The settings on record: mouse, liver microsomes, pH 7.4, mouse liver microsomes, 1 μM compound, 0.5 mg/mL protein, 37° C.; read-out: MLM +30/− NADPH: Clint (μL/min/mg protein). The essentials: (§1)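 Compound at 1 μM was incubated at 37° C with 0.5 mg/mL liver microsomes and 1 mM NADPH and/or 1 mM UDPGA (with alamethicin) in 100 mM potassium phosphate pH 7.4, 3 mM MgCl2. Samples were taken at 0, 15, 30 and 60 min and measured by LC/MS/MS. t½ came from compound loss relative to 0 min, and Clint was scaled with 45 mg microsomal protein/g liver.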
In general terms: Microsomes from liver hold many membrane-bound enzymes, among them those of drug oxidation.

In data set [2] the target is T1, androgen receptor (AR) (Homo sapiens, UniProt P10275, T878A).
T1 construct: LNCaP cells were transiently transfected with the PSA (6.1 kb)-luciferase reporter for 24 h; endogenous in cells; host or cells: LNCaP
T1 sequence (P10275 1-920 T878A): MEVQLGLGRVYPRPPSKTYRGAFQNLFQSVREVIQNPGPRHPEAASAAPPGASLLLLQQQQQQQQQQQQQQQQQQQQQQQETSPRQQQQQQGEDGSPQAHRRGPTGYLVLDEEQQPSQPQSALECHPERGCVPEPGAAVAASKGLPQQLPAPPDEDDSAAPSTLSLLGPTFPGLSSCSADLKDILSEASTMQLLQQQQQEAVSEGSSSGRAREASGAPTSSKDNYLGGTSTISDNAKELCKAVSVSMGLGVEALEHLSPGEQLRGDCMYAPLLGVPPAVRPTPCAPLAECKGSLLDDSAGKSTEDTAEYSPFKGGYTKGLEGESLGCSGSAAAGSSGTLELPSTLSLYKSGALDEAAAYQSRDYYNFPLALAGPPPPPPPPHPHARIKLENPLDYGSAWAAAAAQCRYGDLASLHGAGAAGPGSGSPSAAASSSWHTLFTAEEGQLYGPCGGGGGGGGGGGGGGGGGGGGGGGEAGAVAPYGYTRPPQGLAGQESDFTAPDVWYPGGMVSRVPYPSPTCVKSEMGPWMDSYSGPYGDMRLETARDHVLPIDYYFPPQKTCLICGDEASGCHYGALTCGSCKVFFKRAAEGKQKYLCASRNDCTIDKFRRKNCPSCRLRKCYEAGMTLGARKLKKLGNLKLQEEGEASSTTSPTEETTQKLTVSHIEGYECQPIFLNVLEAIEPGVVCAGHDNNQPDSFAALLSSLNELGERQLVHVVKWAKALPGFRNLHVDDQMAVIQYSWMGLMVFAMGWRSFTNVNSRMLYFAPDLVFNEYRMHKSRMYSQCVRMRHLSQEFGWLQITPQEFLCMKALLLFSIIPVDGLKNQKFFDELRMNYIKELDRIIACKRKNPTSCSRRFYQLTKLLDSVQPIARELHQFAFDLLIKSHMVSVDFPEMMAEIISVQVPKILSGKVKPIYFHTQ
Description: Androgen-induced PSA (6.1 kb)-luciferase reporter assay in LNCaP cells. Type of data set: cell-based. The conditions noted are these: LNCaP cells transfected with PSA (6.1 kb)-luciferase reporter, R1881 1 nM, 24 h; read-out: PSA-Luc IC50 Range. The essentials: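 LNCaP cells carrying a PSA (6.1 kb) promoter-luciferase reporter with AREs; androgen-induced firefly luciferase read from lysates for 10 s. RLU normalized to protein content; IC50 calculated from the normalized data.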
In general terms: Reporter assays use an easily measured gene product as a stand-in for the process of interest.

A short description of data set [3]: Microsomal stability assay, human liver microsomes. Type of data set: in vitro ADME. The conditions noted are these: pH 7.4, 1 μM compound, 0.5 mg/mL protein, 37° C., read-out: HLM +/− NADPH: Clint (μL/min/mg protein). The essentials:
as §1

A short description of data set [4]: Hepatocyte stability assay, mouse hepatocytes. The conditions noted are these: mouse, cryopreserved hepatocytes, 1 μM compound, 0.5 million cells/mL, 37° C., read-out: MH +/− NADPH: Clint (μL/min/million cells). Type of data set: in vitro ADME. The essentials:
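Cryopreserved rat, human or mouse hepatocytes at 0.5 million cells/mL in DMEM with 1 μM compound, 37° C, sampled at 0, 60, 120 and 180 min and quenched with acetonitrile/formic acid. Parent loss vs 0-min by LC/MS/MS gave t½, and Clint = 0.693/t½ × mL incubation/million cells.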

A value given as a limit tells only on which side of the number the result lay.

For orientation: IC50 means the point on the concentration scale where inhibition reaches its midpoint. With `CC(C)(c1ccc(CCc2ccnc(N)n2)cc1)c1cc(Cl)c(OCCCl)c(C#N)c1` [Compound A121], the microsomal CLint at 1 μM in data set [1] and in data set [3] was 12 to 48 µL/min/mg throughout. In data set [2], the IC50 was in the range of 500 to 2000 nM. The hepatocyte CLint at 1 μM in data set [4] was 4 to 18 µL/min/1e6 cells.

For the compound `CC(=O)Nc1nccc(COc2ccc(C(C)(C)c3cc(C)c(OCCCl)c(C#N)c3)cc2)n1` [Compound A100], the microsomal CLint at 1 μM in data set [1] and in data set [3] was at least 48 µL/min/mg in each case. Further, the concentration for half-maximal inhibition (IC50) in data set [2] is under 500 nM. The hepatocyte CLint at 1 μM in data set [4] was at least 18 µL/min/1e6 cells.

Regarding `CC(C)(c1ccc(OCc2cncc(NS(C)(=O)=O)n2)cc1)c1cc(Cl)c(OCCCl)c(C#N)c1` [Compound A185, N-(6-((4-(2-(3-chloro-4-(2-chloroethoxy)-5-cyanophenyl)propan-2-yl)phenoxy)methyl)pyrazin-2-yl)methanesulfonamide], the microsomal CLint at 1 μM in data set [1] is 12 to 48 µL/min/mg; in data set [3] it was under 12 µL/min/mg. For the same compound, the half-maximal inhibitory concentration (IC50) in data set [2] is under 500 nM. In addition, the hepatocyte CLint at 1 μM in data set [4] lay within 4 to 18 µL/min/1e6 cells.

Regarding `CC(Oc1ccc(C(C)(C)c2cc(Cl)c(OCCCl)c(C#N)c2)cc1)c1ncoc1S(C)(=O)=O` (centres unmarked) [Compound A79], the microsomal CLint at 1 μM is at least 48 µL/min/mg in data set [1] and under 12 µL/min/mg in data set [3]. In addition, in data set [2], the half-inhibitory concentration (IC50) is under 500 nM. Besides, the hepatocyte CLint at 1 μM in data set [4] is at least 18 µL/min/1e6 cells.

In the case of `CC(C)(c1ccc(OCc2nc(C#N)cs2)cc1)c1cc(Cl)c(OCCCl)c(C#N)c1` [Compound A172, 2-((4-(2-(3-chloro-4-(2-chloroethoxy)-5-cyanophenyl)propan-2-yl)phenoxy)methyl)thiazole-4-carbonitrile], the microsomal CLint at 1 μM in data set [1] and in data set [3] was under 12 µL/min/mg each time. The concentration for half-maximal inhibition (IC50) in data set [2] is under 500 nM. Moreover, in data set [4], the hepatocyte CLint at 1 μM is under 4 µL/min/1e6 cells.

For `CC(C)(c1ccc(OCc2cccc(NS(C)(=O)=O)n2)cc1)c1cc(Cl)c(OCCCl)c(C#N)c1` [Compound A194], the microsomal CLint at 1 μM in data set [1] and in data set [3] was under 12 µL/min/mg in each case. For the same compound, the IC50 in data set [2] lay in the range of 500 to 2000 nM. The hepatocyte CLint at 1 μM in data set [4] is under 4 µL/min/1e6 cells.

For the compound `CC(C)S(=O)(=O)c1ncc(COc2ccc(C(C)(C)c3cc(Cl)c(OCCCl)c(C#N)c3)cc2)o1` [Compound A142], the microsomal CLint at 1 μM in data set [1] was at least 48 µL/min/mg; in data set [3], 12 to 48 µL/min/mg. The half-inhibitory concentration (IC50) in data set [2] was under 500 nM. For the same compound, the hepatocyte CLint at 1 μM in data set [4] was at least 18 µL/min/1e6 cells.

`CC(C)(c1ccc(OCc2cc(CN)nc(NS(C)(=O)=O)n2)cc1)c1cc(Cl)c(OCCCl)c(C#N)c1` [Compound A164, N-(4-(aminomethyl)-6-((4-(2-(3-chloro-4-(2-chloroethoxy)-5-cyanophenyl)propan-2-yl)phenoxy)methyl)pyrimidin-2-yl)methanesulfonamide]: the microsomal CLint at 1 μM in data set [1] and in data set [3] was under 12 µL/min/mg throughout. For the same compound, the IC50 in data set [2] was 500 to 2000 nM. Also, the hepatocyte CLint at 1 μM in data set [4] is under 4 µL/min/1e6 cells.

Turning to `CC(C)(c1ccc(OCc2coc(S(N)(=O)=O)c2)cc1)c1cc(Cl)c(OCCCl)c(C#N)c1` [Compound A207], the microsomal CLint at 1 μM in data set [1] and in data set [3] was under 12 µL/min/mg each time. Besides, in data set [2], the half-maximal inhibitory concentration (IC50) is under 500 nM. For the same compound, the hepatocyte CLint at 1 μM in data set [4] was under 4 µL/min/1e6 cells.

For `CC(C)(c1ccc(OCc2nc(NS(C)(=O)=O)nc3c2CCOC3)cc1)c1cc(Cl)c(OCCCl)c(C#N)c1` [Compound A190], the microsomal CLint at 1 μM was at least 48 µL/min/mg in data set [1] and under 12 µL/min/mg in data set [3]. Moreover, the IC50 in data set [2] lay in the range of 500 to 2000 nM. Moreover, in data set [4], the hepatocyte CLint at 1 μM was at least 18 µL/min/1e6 cells.

For `Cc1cc(C(C)(C)c2ccc(OC(C)c3ncc(S(C)(=O)=O)o3)cc2)cc(C#N)c1OCCCl` (centres unmarked) [Compound A89], the microsomal CLint at 1 μM in data set [1] was at least 48 µL/min/mg; in data set [3], 12 to 48 µL/min/mg. For the same compound, the IC50 in data set [2] is 500 to 2000 nM. Besides, the hepatocyte CLint at 1 μM in data set [4] was at least 18 µL/min/1e6 cells.

`CC(C)(c1ccc(OCc2cnc(NS(C)(=O)=O)nc2)cc1)c1cc(Cl)c(OCCCl)c(C#N)c1` [Compound A204]: the microsomal CLint at 1 μM in data set [1] and in data set [3] was under 12 µL/min/mg throughout. Besides, in data set [2], the IC50 is under 500 nM. Moreover, in data set [4], the hepatocyte CLint at 1 μM was under 4 µL/min/1e6 cells.

Consider `CC(C)(c1ccc(OCc2ccnc(N3CCCS3(=O)=O)n2)cc1)c1cc(Cl)c(OCCCl)c(C#N)c1` [Compound A199], for which the results for the microsomal CLint at 1 μM in data set [1] and in data set [3] were at least 48 µL/min/mg and under 12 µL/min/mg, respectively. The IC50 in data set [2] is under 500 nM. Further, in data set [4], the hepatocyte CLint at 1 μM is 4 to 18 µL/min/1e6 cells.

Consider `CC(Oc1ccc(C(C)(C)c2cc(Cl)c(OCCCl)c(C#N)c2)cc1)c1ocnc1S(C)(=O)=O` (centres unmarked) [Compound A87], for which the microsomal CLint at 1 μM in data set [1] was 12 to 48 µL/min/mg; in data set [3], under 12 µL/min/mg. In data set [2], the IC50 was 500 to 2000 nM. Also, the hepatocyte CLint at 1 μM in data set [4] was at least 18 µL/min/1e6 cells.

For `Cc1nc(S(C)(=O)=O)oc1COc1ccc(C(C)(C)c2cc(Cl)c(OCCCl)c(C#N)c2)cc1` [Compound A81], the results for the microsomal CLint at 1 μM in data set [1] and in data set [3] were at least 48 µL/min/mg and 12 to 48 µL/min/mg, respectively. Moreover, in data set [2], the half-maximal inhibitory concentration (IC50) was under 500 nM. Further, the hepatocyte CLint at 1 μM in data set [4] is at least 18 µL/min/1e6 cells.

For `CC(Oc1ccc(C(C)(C)c2cc(Cl)c(OCCCl)c(C#N)c2)cc1)c1ccnc(S(C)(=O)=O)n1` (centres unmarked) [Compound A147], the microsomal CLint at 1 μM in data set [1] was at least 48 µL/min/mg; in data set [3], 12 to 48 µL/min/mg. Besides, in data set [2], the concentration for half-maximal inhibition (IC50) is over 2000 nM. Moreover, the hepatocyte CLint at 1 μM in data set [4] is at least 18 µL/min/1e6 cells.

On to `CC(Oc1ccc(C(C)(C)c2cc(Cl)c(OCCCl)c(C#N)c2)cc1)c1coc(S(C)(=O)=O)n1` (centres unmarked) [Compound A85], for which the microsomal CLint at 1 μM in data set [1] was at least 48 µL/min/mg; in data set [3], under 12 µL/min/mg. Moreover, the IC50 in data set [2] was under 500 nM. Moreover, in data set [4], the hepatocyte CLint at 1 μM is at least 18 µL/min/1e6 cells.

As for `CC(C)(c1ccc(OCc2nc(NS(C)(=O)=O)cs2)cc1)c1cc(Cl)c(OCCCl)c(C#N)c1` [Compound A137, N-(2-((4-(2-(3-Chloro-4-(2-chloroethoxy)-5-cyanophenyl)propan-2-yl)phenoxy)methyl)thiazol-4-yl)methanesulfonamide], the values for the microsomal CLint at 1 μM in data set [1] and in data set [3] were 12 to 48 µL/min/mg and under 12 µL/min/mg, respectively. For the same compound, in data set [2], the IC50 was under 500 nM. In addition, the hepatocyte CLint at 1 μM in data set [4] is under 4 µL/min/1e6 cells.

For `C[C@](O)(c1ccc(OCc2ocnc2S(C)(=O)=O)cc1)c1cc(Cl)c(OCCCl)c(C#N)c1` [Compound A108], the values for the microsomal CLint at 1 μM in data set [1] and in data set [3] were at least 48 µL/min/mg and under 12 µL/min/mg, respectively. In addition, in data set [2], the 50% inhibitory concentration (IC50) is 500 to 2000 nM. Besides, in data set [4], the hepatocyte CLint at 1 μM is at least 18 µL/min/1e6 cells.

Turning to `CC(Oc1ccc(C(C)(C)c2cc(Cl)c(OCCCl)c(C#N)c2)cc1)c1cnc(NS(C)(=O)=O)o1` (centres unmarked) [Compound A92], the microsomal CLint at 1 μM in data set [1] and in data set [3] was 12 to 48 µL/min/mg each time. In data set [2], the IC50 is under 500 nM. Besides, the hepatocyte CLint at 1 μM in data set [4] was at least 18 µL/min/1e6 cells.

Source of the values: patent US11059795B2, “Androgen receptor modulators and methods for their use” (ESSA Pharma, Inc., priority 2018, dated 2021).
